The source of these data is patent EP4733298A1, “NOVEL TRPM4 ANTAGONISTS AND MEDICAL USE THEREOF” (Universitätsklinikum Hamburg-Eppendorf, priority 2024, dated 2026).

The target in assay [1] is T1, norepinephrine transporter (h) (antagonist radioligand) (Homo sapiens, UniProt P23975).
T1 construct: purchased Eurofins Cerep Safetyscreen 44 Panel; Study ID FR095-0009609
Description: In vitro pharmacology (SafetyScreen44), norepinephrine transporter binding. The settings on record: Ref. CMP protriptyline, read-out: Inhibiton (%) norepinephrine transporter (h) (antagonist radioligand). As to the method: (§1) In vitro assays were used to test absorption, distribution, metabolism, excretion and toxicity (ADMET) parameters for selected compounds. Compound absorption was assessed using parallel artificial membrane permeability (PAMPA) and Caco-2 cell permeability assays (cut-off criterion > 2 × 10^-6 cm s^-1). Compound toxicity was evaluated by measuring inhibition of cytochrome P450 enzymes (CYP), the potassium channel hERG, and TRPM5, with all parameters meeting acceptable criteria (Table 1). To assess potential off-target activity of the compounds that could be relevant for safety in humans, in vitro pharmacology tests using the commercially available and widely used SafetyScreen44 interaction panel^60 covering eight protein families were conducted (Tables 2 and 3). The lack of off-target activities on hERG channels and in vitro pharmacology profiles are promising and consistent with absence of toxicity during in vivo pharmacokinetic assessments, see below. Table 1. In vitro ADMET profile of Series 1 compounds.
(§2) Table 2. In vitro pharmacology profile of representative compounds disclosed herein, i.e. of benzoxazoles according to Formula (I) (CMP 343 and 354). Only inhibitions above 50% relative to the reference compound are shown and considered active. […]

Assay [2] has as its target T2, 5-HT2B (h) (agonist radioligand) (Homo sapiens, UniProt P41595).
T2 construct: purchased Eurofins Cerep Safetyscreen 44 Panel; Study ID FR095-0009609
In words: In vitro pharmacology (SafetyScreen44), 5-HT2B binding. The conditions noted are these: Ref. CMP (±)DOI, read-out: Inhibiton (%) 5-HT2B (h) (agonist radioligand). The method, then:
as §1, §2

For assay [3], the target named is T3, dopamine transporter (h) (antagonist radioligand) (Homo sapiens, UniProt Q01959).
T3 construct: purchased Eurofins Cerep Safetyscreen 44 Panel; Study ID FR095-0009609
Description: In vitro pharmacology (SafetyScreen44), dopamine transporter binding. The conditions noted are these: Ref. CMP BTCP, read-out: Inhibiton (%) dopamine transporter (h) (antagonist radioligand). As to the method:
as §1, §2

Assay [4] deals with T4, 5-HT2A (h) (agonist radioligand) (Homo sapiens, UniProt P28223).
T4 construct: purchased Eurofins Cerep Safetyscreen 44 Panel; Study ID FR095-0009609
Description: In vitro pharmacology (SafetyScreen44), 5-HT2A binding. The settings on record: Ref. CMP (±)DOI, read-out: Inhibiton (%) 5-HT2A (h) (agonist radioligand). As to the method: as §1, §2

The target of another assay is T5, human TRPM4 (Homo sapiens, UniProt Q8TD43).
T5 construct: host or cells: HEK293, stably expressing
Description: QPatch assay (automated patch clamp), TRPM4. The class given is cell-based. The conditions noted are these: human TRPM4-expressing HEK293 cells, read-out: TRP M4 IC50. As to the method: QPatchHTX, an automated electrophysiology platform, was used in single hole mode. One day before use human TRPM4- or TRPM5-expressing HEK293 cells were seeded in a T75 flask at a density of 53k cells per cm^2 and at passages < 23. […] The extracellular solution was (in mM): CaCl2 (7), MgCl2 (2), KCl (5), HEPES (10), NaCl (70), NMDG (70); pH 7.4 with NaOH. The intracellular solution was (in mM): HEPES (10), NMDG (100), NaCl (50), EGTA (20), MgCl2 (1), CaCl2 (21); pH 7.2 with HCl. […] This protocol was repeated every 7 seconds. […] FFA was used as reference compound and applied cumulatively with each concentration incubating at a minimum of 20 voltage protocol runs (140 seconds) with the current after addition of FFA being calculated as full block. […] Each compound was measured at least 3 time independently.

Assay [5] addresses T6, kappa (h) (KOP) (agonist radioligand) (Homo sapiens, UniProt P41145).
T6 construct: purchased Eurofins Cerep Safetyscreen 44 Panel; Study ID FR095-0009609
Description: In vitro pharmacology (SafetyScreen44), kappa opioid receptor binding. The settings on record: Ref. CMP U50488, read-out: Inhibiton (%) kappa (h) (KOP) (agonist radioligand). The method, then: as §1, §2

A further assay deals with T7, COX1 (h) (Homo sapiens, UniProt P23219).
T7 construct: purchased Eurofins Cerep Safetyscreen 44 Panel; Study ID FR095-0009609
In words: In vitro pharmacology (SafetyScreen44), COX1. The class given is biochemical. The conditions noted are these: Ref. CMP Diclofenac, read-out: Inhibiton (%) COX1 (h). As to the method:
as §1, §2

The IC50 is the concentration at which inhibition is half-maximal.

T4 sequence (P28223 whole entry): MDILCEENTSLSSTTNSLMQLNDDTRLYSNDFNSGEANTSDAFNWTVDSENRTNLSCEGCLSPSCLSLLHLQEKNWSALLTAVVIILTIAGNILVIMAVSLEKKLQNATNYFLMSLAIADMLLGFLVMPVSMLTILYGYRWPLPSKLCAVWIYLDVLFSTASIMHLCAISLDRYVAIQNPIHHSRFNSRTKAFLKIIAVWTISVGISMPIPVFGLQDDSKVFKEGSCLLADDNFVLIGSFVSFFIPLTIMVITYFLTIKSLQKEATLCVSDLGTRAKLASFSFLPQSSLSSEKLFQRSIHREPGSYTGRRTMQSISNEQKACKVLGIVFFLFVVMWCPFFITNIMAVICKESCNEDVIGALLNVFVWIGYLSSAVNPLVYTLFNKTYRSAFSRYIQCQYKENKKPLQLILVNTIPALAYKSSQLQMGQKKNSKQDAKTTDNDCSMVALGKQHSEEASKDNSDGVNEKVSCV
T2 sequence (P41595 whole entry): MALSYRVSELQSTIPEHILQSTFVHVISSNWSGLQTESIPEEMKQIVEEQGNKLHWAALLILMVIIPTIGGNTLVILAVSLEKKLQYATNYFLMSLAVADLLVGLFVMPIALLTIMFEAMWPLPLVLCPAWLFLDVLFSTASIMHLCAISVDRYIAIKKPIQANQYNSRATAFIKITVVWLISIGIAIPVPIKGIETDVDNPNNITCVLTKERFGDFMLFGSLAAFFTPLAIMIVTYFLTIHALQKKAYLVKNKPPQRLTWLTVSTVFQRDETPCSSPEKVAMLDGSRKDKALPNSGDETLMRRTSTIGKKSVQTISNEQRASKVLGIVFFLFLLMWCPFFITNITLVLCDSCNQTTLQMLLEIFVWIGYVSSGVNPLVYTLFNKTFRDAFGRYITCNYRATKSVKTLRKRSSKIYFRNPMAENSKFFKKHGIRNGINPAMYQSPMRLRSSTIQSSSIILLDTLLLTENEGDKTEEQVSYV
T3 sequence (Q01959 whole entry): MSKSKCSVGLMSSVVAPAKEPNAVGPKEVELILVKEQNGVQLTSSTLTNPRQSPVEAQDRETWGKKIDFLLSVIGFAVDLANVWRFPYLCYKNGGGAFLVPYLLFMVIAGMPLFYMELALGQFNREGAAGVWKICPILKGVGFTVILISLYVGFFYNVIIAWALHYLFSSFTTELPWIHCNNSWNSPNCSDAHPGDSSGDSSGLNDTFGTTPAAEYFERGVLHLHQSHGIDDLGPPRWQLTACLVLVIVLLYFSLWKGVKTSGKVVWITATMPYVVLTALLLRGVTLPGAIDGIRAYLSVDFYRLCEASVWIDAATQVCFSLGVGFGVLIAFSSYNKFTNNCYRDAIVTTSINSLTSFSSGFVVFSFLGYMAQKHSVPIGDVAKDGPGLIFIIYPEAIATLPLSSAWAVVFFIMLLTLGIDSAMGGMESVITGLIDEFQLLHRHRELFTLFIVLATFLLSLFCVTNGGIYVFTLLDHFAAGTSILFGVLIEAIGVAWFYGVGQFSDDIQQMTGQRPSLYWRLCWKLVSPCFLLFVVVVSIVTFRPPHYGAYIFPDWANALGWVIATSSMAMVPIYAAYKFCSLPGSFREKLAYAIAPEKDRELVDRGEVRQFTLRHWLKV
T1 sequence (P23975 whole entry): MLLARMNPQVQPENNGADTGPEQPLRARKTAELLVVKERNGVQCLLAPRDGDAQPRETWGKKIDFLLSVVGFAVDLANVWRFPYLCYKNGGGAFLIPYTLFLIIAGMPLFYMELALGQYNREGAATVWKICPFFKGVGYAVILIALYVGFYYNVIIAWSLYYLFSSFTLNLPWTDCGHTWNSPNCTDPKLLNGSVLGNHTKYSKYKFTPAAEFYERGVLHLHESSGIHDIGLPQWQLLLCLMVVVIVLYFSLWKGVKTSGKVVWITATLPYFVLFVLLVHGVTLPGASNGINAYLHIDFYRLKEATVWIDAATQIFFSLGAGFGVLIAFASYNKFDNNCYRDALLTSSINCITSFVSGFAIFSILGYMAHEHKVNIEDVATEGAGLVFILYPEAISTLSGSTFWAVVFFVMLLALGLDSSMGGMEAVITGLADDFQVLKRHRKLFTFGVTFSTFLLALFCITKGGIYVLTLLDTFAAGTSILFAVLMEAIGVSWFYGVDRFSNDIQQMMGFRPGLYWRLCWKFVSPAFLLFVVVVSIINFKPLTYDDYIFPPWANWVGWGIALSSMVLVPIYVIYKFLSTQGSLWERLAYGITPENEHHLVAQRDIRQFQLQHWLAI
T6 sequence (P41145 whole entry): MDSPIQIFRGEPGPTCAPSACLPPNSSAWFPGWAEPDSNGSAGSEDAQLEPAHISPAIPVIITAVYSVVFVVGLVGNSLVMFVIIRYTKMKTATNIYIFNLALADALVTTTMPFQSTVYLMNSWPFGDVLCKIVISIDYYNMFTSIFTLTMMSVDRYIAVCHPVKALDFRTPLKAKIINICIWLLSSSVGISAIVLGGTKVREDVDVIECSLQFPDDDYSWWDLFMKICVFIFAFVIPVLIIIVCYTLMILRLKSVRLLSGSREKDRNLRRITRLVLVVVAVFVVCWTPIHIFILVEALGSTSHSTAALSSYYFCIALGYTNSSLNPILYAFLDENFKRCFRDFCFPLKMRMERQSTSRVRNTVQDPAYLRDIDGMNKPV
T7 sequence (P23219 24-599): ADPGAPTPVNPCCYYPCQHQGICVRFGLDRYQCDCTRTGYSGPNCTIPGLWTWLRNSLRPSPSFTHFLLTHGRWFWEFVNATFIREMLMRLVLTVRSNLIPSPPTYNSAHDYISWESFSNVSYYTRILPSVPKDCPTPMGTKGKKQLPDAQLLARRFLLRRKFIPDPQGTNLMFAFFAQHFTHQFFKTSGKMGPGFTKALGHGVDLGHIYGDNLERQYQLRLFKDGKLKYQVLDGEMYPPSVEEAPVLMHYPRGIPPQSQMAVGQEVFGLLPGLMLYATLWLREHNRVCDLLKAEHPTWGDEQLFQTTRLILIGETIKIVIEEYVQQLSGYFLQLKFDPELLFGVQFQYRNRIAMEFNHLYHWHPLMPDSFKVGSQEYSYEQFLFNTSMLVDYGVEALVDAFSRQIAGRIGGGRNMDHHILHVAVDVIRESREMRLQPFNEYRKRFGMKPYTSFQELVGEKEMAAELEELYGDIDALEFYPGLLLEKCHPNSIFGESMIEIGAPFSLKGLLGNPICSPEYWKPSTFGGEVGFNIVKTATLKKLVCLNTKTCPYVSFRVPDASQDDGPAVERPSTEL
T5 sequence (Q8TD43 whole entry): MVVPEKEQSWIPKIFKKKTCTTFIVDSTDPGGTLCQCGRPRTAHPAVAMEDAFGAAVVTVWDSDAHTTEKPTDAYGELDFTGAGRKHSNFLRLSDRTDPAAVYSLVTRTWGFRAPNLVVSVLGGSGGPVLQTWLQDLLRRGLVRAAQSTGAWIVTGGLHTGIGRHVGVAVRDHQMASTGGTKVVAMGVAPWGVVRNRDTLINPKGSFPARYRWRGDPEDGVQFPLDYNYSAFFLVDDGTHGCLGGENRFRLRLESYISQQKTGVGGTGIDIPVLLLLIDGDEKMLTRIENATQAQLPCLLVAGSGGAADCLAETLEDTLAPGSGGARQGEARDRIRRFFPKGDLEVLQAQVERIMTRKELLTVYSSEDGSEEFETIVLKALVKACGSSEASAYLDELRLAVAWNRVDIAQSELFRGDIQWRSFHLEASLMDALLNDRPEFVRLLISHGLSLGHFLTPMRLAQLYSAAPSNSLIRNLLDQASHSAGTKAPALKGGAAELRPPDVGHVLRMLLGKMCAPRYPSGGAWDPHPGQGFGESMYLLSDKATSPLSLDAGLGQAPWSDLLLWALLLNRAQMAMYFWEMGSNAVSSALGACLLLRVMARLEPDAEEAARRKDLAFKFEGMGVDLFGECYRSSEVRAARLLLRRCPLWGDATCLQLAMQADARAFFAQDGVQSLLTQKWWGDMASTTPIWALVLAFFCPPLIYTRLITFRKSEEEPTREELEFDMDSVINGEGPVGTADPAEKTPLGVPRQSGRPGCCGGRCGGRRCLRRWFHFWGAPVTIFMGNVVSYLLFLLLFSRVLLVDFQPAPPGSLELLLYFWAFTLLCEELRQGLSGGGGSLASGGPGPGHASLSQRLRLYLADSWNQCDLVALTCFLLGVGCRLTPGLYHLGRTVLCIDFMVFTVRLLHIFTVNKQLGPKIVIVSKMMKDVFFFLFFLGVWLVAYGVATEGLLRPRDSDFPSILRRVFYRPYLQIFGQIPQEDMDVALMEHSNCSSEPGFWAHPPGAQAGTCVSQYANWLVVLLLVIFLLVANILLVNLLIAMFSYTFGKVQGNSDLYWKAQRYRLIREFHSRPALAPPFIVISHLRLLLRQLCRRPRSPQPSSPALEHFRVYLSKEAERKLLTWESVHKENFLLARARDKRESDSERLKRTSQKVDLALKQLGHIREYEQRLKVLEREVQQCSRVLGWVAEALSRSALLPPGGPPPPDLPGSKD

Regarding `Cc1ccc(-c2ccccc2NCc2nc3ccccc3o2)s1` [CMP354], the inhibition at 5 µM turned out to be 74% in assay [1], 65% in assay [2], 64% in assay [3] and 73% in assay [4].

For the compound `Cc1noc(-c2csc(S(=O)(=O)Nc3ccccc3C(F)(F)F)c2)c1C` [CMP157], the half-maximal inhibitory concentration (IC50) on human TRPM4 amounted to 630 nM.

As to `Fc1cccc(-c2ccccc2NCc2nc3ccccc3o2)c1` [CMP343], the inhibition at 5 µM in assay [5] turned out to be 63%; in assay [1], 78%; in assay [2], 70%; in assay [3], 70%; at COX1 (h), 56%; in assay [4], 51%.
